Laboratory results reported in patent US20230256120A1, “DIAGNOSTIC AGENT FOR PANCREATIC FUNCTION” (HAMAMATSU PHOTONICS K.K., priority 2020, published 2023).

Test system: MC-I in the pancreas
Assay: PET measurement of [^18F]BCPP-BF accumulation in the pancreas of type II diabetes model rats
Assay type: in vivo, rat
Settings: fatty rats versus lean rats; PET measurement method; after 5 weeks of age; FIG. 2(A)
Text: Male Zucker Leprfa/Leprfa rats (hereinafter also referred to as “fatty rats”) that develop pathological conditions similar to type II diabetes of human adults and male Zucker Leprfa/+ rats (hereinafter also referred to as “lean rats”) as controls thereof were purchased from Charles River Laboratories Japan, Inc., and used for PET measurement at 5, 8, 16, and 26 weeks of age.
The rats were anesthetized with isoflurane and fixed in a gantry of an animal PET camera (SHR-38000, manufactured by Hamamatsu Photonics K.K.). […] After the completion of the PET measurement, a region of interest was set on the pancreas identified from an accumulated PET image 40 to 60 minutes after the administration of D-[^11C]MT, and the amount of [^18F]BCPP-BF accumulated in the region of interest was calculated. Subsequently, the calculated accumulation amount was normalized by the amount of radioactivity administered and the body weight of each individual and defined as an amount (amount (SUV) of radioactivity administered) of [^18F]BCPP-BF accumulated in the pancreas.
The pancreas was excised from each rat immediately after the completion of the PET measurement, and the weight of the excised pancreas was measured. Subsequently, the radioactivity of the excised pancreas was measured using a gamma counter (manufactured by PerkinElmer Inc., 1480 WIZARD). […]

## CC(C)(C)n1ncc(OCc2ccc(OCCCC[18F])nc2)c(Cl)c1=O [[^18F]BCPP-BF]
  uptake (SUV) of [^18F]BCPP-BF in the pancreas: decreased
